According to publication PMC7921015, “Spatiotemporal GLP-1 and GIP receptor signaling and trafficking/recycling dynamics induced by selected receptor mono- and dual-agonists” (Molecular Metabolism, 2021):

Experiments:
human GLP-1R [1] = biological target: T1, human GLP-1R (Homo sapiens, UniProt P43220); test: cAMP assay (CAMYEL BRET sensor), GLP-1R; format: cell-based
T1 construct: host or cells: HEK293T
Procedure: (§1) The cells were seeded (700,000 cells/well) in 6-well plates and incubated to ∼70% confluency in complete media supplemented with 10% FBS and 1% Pen-Strep. […] Baseline measurements were taken after 5 min of incubation with coelenterazine-h or NanoGlo. The cells were then treated with a vehicle or the respective agonists. […] The temporal data of the vehicle-corrected agonist measurement was then normalized to the baseline reading of the same well. The first BRET reading following treatment with agonist/vehicle was the subsequent measurement after the zero time point. Positive or negative incremental areas under the curves (+iAUC/-iAUC) were calculated where noted. Each experiment was independently performed at least three times, with at least two technical replicates for each group.
(§2) CAMYEL, a cAMP sensor using YFP-Epac-RLuc was utilized to quantify cAMP accumulation with the temporal resolution. Then, 500 ng of CAMYEL DNA was co-transfected with 500 ng of DNA of untagged GLP-1R or GIPR per well in a 6-well plate. The experiments were performed in the absence of 3-isobutyl-1-methylxanthine (IBMX).
(§3) Data are represented as means ± S.E.M. Each experiment was independently conducted at least three times, each with at least two technical replicates. […] Dose responses were fitted using non-linear regression. pEC50 and EC50 values were calculated using GraphPad Prism 8.0 (GraphPad, San Diego, CA, USA). Statistical analyses were calculated in GraphPad 8.0 using one-way analysis of variance (ANOVA) and corrected with Tukey's or Bonferroni's multiple comparison test. Differences are considered significant with an adjusted p value < 0.05.

human GIPR [2] = biological target: T2, human GIPR (Homo sapiens, UniProt P48546); test: cAMP assay (CAMYEL BRET sensor), GIPR; format: cell-based
T2 sequence (P48546 22-466): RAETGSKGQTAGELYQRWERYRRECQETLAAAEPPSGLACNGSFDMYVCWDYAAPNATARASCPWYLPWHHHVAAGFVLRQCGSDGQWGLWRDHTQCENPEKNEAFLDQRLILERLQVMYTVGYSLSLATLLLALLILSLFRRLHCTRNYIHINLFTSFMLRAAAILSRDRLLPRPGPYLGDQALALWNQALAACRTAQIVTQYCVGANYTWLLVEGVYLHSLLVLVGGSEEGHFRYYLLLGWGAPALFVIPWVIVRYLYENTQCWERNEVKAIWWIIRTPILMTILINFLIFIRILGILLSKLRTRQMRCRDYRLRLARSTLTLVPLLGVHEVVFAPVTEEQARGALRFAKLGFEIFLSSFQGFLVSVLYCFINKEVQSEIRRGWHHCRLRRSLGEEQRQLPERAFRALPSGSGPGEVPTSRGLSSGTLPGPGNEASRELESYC
Procedure: as §1, §2, §3

human GIPR [3] = biological target: T2, human GIPR; test: β-arrestin 1 recruitment BRET assay, GIPR; format: cell-based
Procedure: as §1
(§4) Co-localization of β-arrestin1/2-RLUC8 with GLP-1R-GFP or GIPR-GFP was assessed.
as §3

human GIPR [4] = biological target: T2, human GIPR; test: β-arrestin 2 recruitment BRET assay, GIPR; format: cell-based; settings: HEK293T, GIPR-GFP + β-arrestin2-RLUC8, BRET, +iAUC 30 min
Procedure: as §1, §4, §3

Human GLP-1R-GFP (human) [5] = biological target: Human GLP-1R-GFP (human) (UniProt P43220)
Human GLP-1R-GFP (human), sequence (P43220 24-463): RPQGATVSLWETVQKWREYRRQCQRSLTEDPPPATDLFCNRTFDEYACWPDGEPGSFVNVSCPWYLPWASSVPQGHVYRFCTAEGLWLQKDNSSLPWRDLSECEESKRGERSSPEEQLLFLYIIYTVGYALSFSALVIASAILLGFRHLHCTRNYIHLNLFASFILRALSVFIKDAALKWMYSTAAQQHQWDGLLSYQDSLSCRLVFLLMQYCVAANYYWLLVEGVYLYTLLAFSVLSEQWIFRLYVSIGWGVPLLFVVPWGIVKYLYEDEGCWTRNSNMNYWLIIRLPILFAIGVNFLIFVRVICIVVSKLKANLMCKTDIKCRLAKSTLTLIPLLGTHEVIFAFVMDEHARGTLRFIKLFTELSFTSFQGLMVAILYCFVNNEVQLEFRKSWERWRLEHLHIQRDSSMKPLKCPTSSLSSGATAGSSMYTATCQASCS

Human GLP-1R-GFP (human) [6] = biological target: Human GLP-1R-GFP (human) (UniProt P43220); remark: listed apart in the source
human GLP-1R [7] = biological target: T1, human GLP-1R; test: Gαq (mini-G) recruitment BRET assay, GLP-1R; format: cell-based; settings: HEK-293T, HEK293T, GLP-1R-GFP + NLuc-mini-G, +iAUC 60 min, mean ± SEM, at least 3 experiments
human GLP-1R [8] = biological target: T1, human GLP-1R; test: Gαs (mini-G) recruitment BRET assay, GLP-1R; format: cell-based; settings: HEK-293T, HEK293T, GLP-1R-GFP + NLuc-mini-G, +iAUC 60 min, mean ± SEM, at least 3 experiments
human GIPR [9] = biological target: T2, human GIPR; test: Gαq (mini-G) recruitment BRET assay, GIPR; format: cell-based; settings: HEK293T, GIPR-GFP + NLuc-mini-G, +iAUC 60 min
human GIPR [10] = biological target: T2, human GIPR; test: GPCR internalization assay (loss of BRET with Venus-KRAS), GIPR; format: cell-based; settings: HEK293T, hGIPR-Rluc8 + Venus-KRAS, iAUC 20 min, mean ± SEM, SEM
human GLP-1R [11] = biological target: T1, human GLP-1R; test: GPCR internalization assay (loss of BRET with Venus-KRAS), GLP-1R; format: cell-based; settings: HEK-293T, HEK293T, hGLP-1R-Rluc8 + Venus-KRAS, iAUC 60 min, mean ± SEM, at least 3 experiments, SEM, read-out: Receptor Internalization Emax (% GLP-1)
human GIPR [12] = biological target: T2, human GIPR; test: Gαs (mini-G) recruitment BRET assay, GIPR; format: cell-based; settings: HEK293T, GIPR-GFP + NLuc-mini-G, +iAUC 60 min
human GLP-1R [13] = biological target: T1, human GLP-1R; test: Endosomal trafficking assay (Venus-Rab5/7/11 co-localization), GLP-1R, HEK293T; format: cell-based; settings: six experiments
Procedure: GPCR endosomal trafficking was assessed by measuring the ligand-stimulated gain in resonance energy transfer between Venus-Rab5/7/11 and hGLP-1R-RLUC8 or hGIPR-RLUC. Then, 100 ng of the respective Venus-Rab subtype DNA and 100 ng of hGLP-1R-RLUC8 or hGIPR-RLUC8 DNA were co-transfected into each well in a 6-well plate.

T1 sequence (P43220 24-463): as above

Work on `CCCCCCCCCCCCCCCC(=O)NCCCC[C@H](NC(=O)[C@H](CO)NC(=O)[C@@H]1CCCN1C(=O)[C@@H]1CCCN1C(=O)[C@@H]1CCCN1C(=O)[C@H](C)NC(=O)CNC(=O)[C@H](CO)NC(=O)[C@H](CO)NC(=O)[C@@H]1CCCN1C(=O)CNC(=O)CNC(=O)[C@H](C)NC(=O)[C@H](CC(C)C)NC(=O)[C@H](CC(C)C)NC(=O)[C@H](Cc1c[nH]c2ccccc12)NC(=O)[C@H](CC(N)=O)NC(=O)[C@@H](NC(=O)[C@H](Cc1ccccc1)NC(=O)[C@H](CCC(=O)O)NC(=O)C(C)(C)NC(=O)[C@H](C)NC(=O)[C@H](C)NC(=O)[C@H](CCC(N)=O)NC(=O)[C@H](CCCCN)NC(=O)[C@H](CC(=O)O)NC(=O)[C@H](CC(C)C)NC(=O)[C@H](Cc1ccc(O)cc1)NC(=O)[C@@H](NC(=O)[C@H](CO)NC(=O)[C@H](Cc1ccc(O)cc1)NC(=O)[C@H](CC(=O)O)NC(=O)[C@H](CO)NC(=O)[C@@H](NC(=O)[C@H](Cc1ccccc1)NC(=O)[C@@H](NC(=O)CNC(=O)[C@H](CCC(=O)O)NC(=O)C(C)(C)NC(=O)[C@@H](N)Cc1ccc(O)cc1)[C@@H](C)O)[C@@H](C)CC)[C@@H](C)CC)C(C)C)C(N)=O` [fatty acyl-GIP] yielded an EC50 (human GLP-1R [1]) of 181 nM, an EC50 (human GIPR [2]) of 1.34 nM and an Emax (human GIPR [2]; HEK-293T, HEK293T transiently expressing untagged GIPR, CAMYEL sensor, no IBMX, +iAUC of 25 min response, 3-parameter fit, mean ± SEM, at least 3 experiments, SEM, read-out: cAMP Emax (% GIP)) of 97 ± 2%. For the same compound, the EC50 (human GIPR [3]; read-out: β-arr1 Recruitment EC50; HEK293T, GIPR-GFP + β-arrestin1-RLUC8, BRET, +iAUC 30 min) was greater than 1000 nM and the EC50 (human GIPR [4]; read-out: β-arr2 Recruitment EC50) was greater than 1000 nM.

With Tirzepatide (peptide) the GLP-1R internalization Emax, % of GLP-1 (7–36 amide) (loss of BRET between hGLP-1R-Rluc8 and Venus-KRAS, HEK293T) (Human GLP-1R-GFP (human) [5]) was 13%, the GLP-1R co-localization with Rab5 early endosomes (BRET of hGLP-1R-Rluc8 with Venus-Rab5, HEK293T), 1 μM, % of GLP-1 (7–36 amide) (Human GLP-1R-GFP (human) [6]) was 13% and the GLP-1R co-localization with Rab7 late endosomes (BRET of hGLP-1R-Rluc8 with Venus-Rab7, HEK293T), % of GLP-1 (7–36 amide) (Human GLP-1R-GFP (human) [6]) was 24%. The GLP-1R co-localization with Rab11 recycling endosomes (BRET of hGLP-1R-Rluc8 with Venus-Rab11, HEK293T), decrease against GLP-1 (7–36 amide) (Human GLP-1R-GFP (human) [6]) was 54%.

`CC[C@H](C)[C@H](NC(=O)[C@H](CC(C)C)NC(=O)[C@H](Cc1c[nH]c2ccccc12)NC(=O)[C@H](CCC(N)=O)NC(=O)[C@@H](NC(=O)[C@H](Cc1ccccc1)NC(=O)[C@H](C)NC(=O)[C@H](CCCCNC(=O)COCCOCCNC(=O)COCCOCCNC(=O)CC[C@H](NC(=O)CCCCCCCCCCCCCCCCCCC(=O)O)C(=O)O)NC(=O)[C@H](CCC(N)=O)NC(=O)[C@H](C)NC(=O)[C@@H](NC(=O)[C@H](CCCCN)NC(=O)[C@H](CC(=O)O)NC(=O)[C@H](CC(C)C)NC(=O)C(C)(C)NC(=O)[C@@H](NC(=O)[C@H](CO)NC(=O)[C@H](Cc1ccc(O)cc1)NC(=O)[C@H](CC(=O)O)NC(=O)[C@H](CO)NC(=O)[C@@H](NC(=O)[C@H](Cc1ccccc1)NC(=O)[C@@H](NC(=O)CNC(=O)[C@H](CCC(=O)O)NC(=O)C(C)(C)NC(=O)[C@@H](N)Cc1ccc(O)cc1)[C@@H](C)O)[C@@H](C)O)[C@@H](C)CC)[C@@H](C)CC)C(C)C)C(=O)N[C@@H](C)C(=O)NCC(=O)NCC(=O)N1CCC[C@H]1C(=O)N[C@@H](CO)C(=O)N[C@@H](CO)C(=O)NCC(=O)N[C@@H](C)C(=O)N1CCC[C@H]1C(=O)N1CCC[C@H]1C(=O)N1CCC[C@H]1C(=O)N[C@@H](CO)C(N)=O` [tirzepatide, reference compound] showed an Emax (human GLP-1R [7]) of 17%, an Emax (human GLP-1R [1]; HEK-293T, HEK293T transiently expressing untagged GLP-1R, CAMYEL sensor, no IBMX, +iAUC of 25 min response, 3-parameter fit, mean ± SEM, at least 3 experiments, SEM) of 102 ± 4% and an Emax (human GLP-1R [8]) of 31%. The EC50 (human GIPR [2]; HEK293T, GIPR, CAMYEL sensor, no IBMX, +iAUC 25 min, read-out: cAMP EC50) was 13.3 nM, the EC50 (human GIPR [9]; mean ± SEM, SEM, read-out: Gαq Recruitment pEC50 (converted)) was 132 nM and the “Gαq Recruitment Emax (% GIP)” value (human GIPR [9]; mean ± SEM, at least 3 experiments, listed as Dual Agonist (Tirzepatide), SEM) was 71 ± 1 [-29]*^# % GIP. The EC50 (human GIPR [9]; read-out: Gαq Recruitment EC50) was 164 nM, the Emax (human GIPR [9]; HEK-293T, mean ± SEM, at least 3 experiments, read-out: Gαq Recruitment Emax (% GIP)) was 85% and the EC50 (human GIPR [10]; read-out: Receptor Internalization pEC50 (converted)) was 4.68 nM. The Emax (human GIPR [10]; HEK-293T, at least 3 experiments, read-out: Receptor Internalization Emax (% GIP)) was 18 ± 1%, the Emax (human GLP-1R [11]) was 24 ± 4% and the EC50 (human GIPR [12]; read-out: Gαs Recruitment EC50) was 324 nM. The Emax (human GIPR [12]; HEK-293T, mean ± SEM, at least 3 experiments, SEM, read-out: Gαs Recruitment Emax (% GIP)) was 43 ± 3%, the “total GLP-1R Rab5 co-localization, of that elicited by GLP-1 (7–36 amide)” value (human GLP-1R [13]; 1 μM stimulation, hGLP-1R-Rluc8 + Venus-Rab5 (early endosomes), +iAUC) was 13% and the “co-localization of GLP-1R with Rab7 positive (late) endosomes, of the response of GLP-1 (7–36 amide)” value (human GLP-1R [13]; hGLP-1R-Rluc8 + Venus-Rab7, +iAUC) was 24%. For the same compound, the “GLP-1R co-localization with Rab11-positive recycling endosomes, decrease vs GLP-1 (7–36 amide)” value (human GLP-1R [13]; hGLP-1R-Rluc8 + Venus-Rab11, +iAUC) was 54%, the EC50 (human GIPR [3]; HEK293T, GIPR-GFP + β-arrestin1-RLUC8, BRET, +iAUC 30 min; read-out: β-arr1 Recruitment EC50) was greater than 1000 nM and the EC50 (human GIPR [3]; HEK293T, GIPR-GFP + β-arrestin1-RLUC8, BRET, +iAUC 30 min; read-out: β-arr1 Recruitment pEC50 (converted)) was greater than 1000 nM. The EC50 (human GIPR [4]; mean ± SEM, SEM, read-out: β-arr2 Recruitment pEC50 (converted)) was 39.8 nM.
